Values of other authors in US6211219A, “Aminocyclohexane derivatives as 5-HT receptor agonists” (Merck Sharp & Dohme Ltd., priority 1996, dated 2001).

Tests used:
humans = details: therapeutic doses
[1] = tested on: human 5-HT1Dα and 5-HT1Dβ receptor subtypes; details: cf. WO-A-91/17174, Table 1

discrimination between the human 5-HT1Dα and 5-HT1Dβ receptor subtypes [1]: barely discriminates
Compound: CNS(=O)(=O)Cc1ccc2[nH]cc(CCN(C)C)c2c1 [sumatriptan]
adverse cardiovascular events on administration to humans (humans): certain adverse cardiovascular events
